Results taken from patent publication US10696972B2, “Method for improving learning” (St. Jude Children's Research Hospital, Inc., priority 2015, dated 2020).

Experiments:
A1R mRNA = experiment: Cortical map plasticity in the ACx after passive tone exposure, A1R shRNA knock-down; assay type: in vivo, mouse; details: adult WT mice, shRNA injected into auditory thalamus (MGv), passive exposure to a 9.8-kHz tone
Procedure: (§1) Mice were housed in ventilated sound-proof chambers with ad libitum food and water and maintained on a 12:12 hour light:dark cycle. Mice were exposed to continuous sound stimulation for 5 to 14 days, consisting of repeated trains of tones. Each train consisted of 5 tones delivered at 5 Hz. A pure tone of certain frequencies (7 kHz, 7.9 kHz, 9.8 kHz, 11.4 kHz, or 16.4 kHz) was used. The tone duration was 50 ms with 5-ms cosine onset/offset ramps at 70-dB sound pressure level (SPL). Trains were separated by 1 s. Naïve (nonexposed) mice were housed in a similar fashion but received no sound stimulation.
Mice were anesthetized with sodium pentobarbital (50 mg/kg) and chlorprothixene (0.2 mg) followed by supplemental doses of sodium pentobarbital (15-25 mg/kg supplements as needed). Spike responses to sound stimulation were recorded from the primary (A1) ACx (depth, 350-420 μm from the pial surface) with Epoxylite-coated tungsten microelectrodes (2.0 MΩ at 1 kHz; FHC, Brunswick, Me.). Frequency response areas (FRAs) were measured with randomly presented tone pips of varying frequency (4.0-44.6 kHz in 0.1-octave increments, 20-ms duration, 5-ms raised cosine onset/offset ramps, 500-ms intertone interval) and level (0- to 70-dB SPL in 10-dB increments). Tones were generated by an electrostatic speaker [Tucker-Davis Technologies (TDT), Alachua, Fla.], which was placed 10 cm from the contralateral ear of the mouse. The ipsilateral ear was plugged with agar. Spike responses to tone pips were amplified with an RA4PA fiber optic preamplifier, filtered (high pass=250 Hz, low pass=5000 Hz), and digitized with an RZ6 real-time processor (TDT). The threshold for spike detection was set at a signal-to-noise ratio of 3:1. TDT System 3 software (OpenEx) controlled both sound stimulus generation and response acquisition and was used for data storage. Cortical maps in the A1 were generated from FRAs measured at 30 to 40 sites per mouse, each separated by 50 to 100 μm. FRAs were analyzed with TDT System 3 software (Open Explorer) for characteristic frequencies (CFs) collated in bins of 0.22 octaves. […]

Nt5e = experiment: Cortical map plasticity in the ACx after passive tone exposure, Nt5e shRNA knock-down; assay type: in vivo, mouse; details: mature WT mice, shRNA injected into auditory thalamus, exposed to 11.4 kHz
Procedure: as §1
Mice were anesthetized with sodium pentobarbital (50 mg/kg) and chlorprothixene (0.2 mg) followed by supplemental doses of sodium pentobarbital (15-25 mg/kg supplements as needed). Spike responses to sound stimulation were recorded from the primary (A1) ACx (depth, 350-420 μm from the pial surface) with Epoxylite-coated tungsten microelectrodes (2.0 MΩ at 1 kHz; FHC, Brunswick, Me.). Frequency response areas (FRAs) were measured with randomly presented tone pips of varying frequency (4.0-44.6 kHz in 0.1-octave increments, 20-ms duration, 5-ms raised cosine onset/offset ramps, 500-ms intertone interval) and level (0- to 70-dB SPL in 10-dB increments). […] Cortical maps in the A1 were generated from FRAs measured at 30 to 40 sites per mouse, each separated by 50 to 100 μm. […]

Substance | ACx map plasticity (A1R mRNA) | percentage of sites with a CF of 11.4 kHz compared to naïve mice (Nt5e)
A1R shRNA (789): shRNA against A1R mRNA, lentivector; coding DNA 5′-CCAGAAACCCAGCATCCTCATCTACATTG-3′ (SEQ ID NO: 11) | sufficient to induce ACx map plasticity | –
scrambled (control) shRNA: scrambled control shRNA; coding DNA 5′-TACGTCCAAGGTCGGGCAGGAAGA-3′ (SEQ ID NO: 9) [reference compound] | no cortical map plasticity | –
Nt5e shRNA (1264): shRNA against Nt5e, lentivector; coding DNA 5′-ACATTTGACCTCGTCCAATTAAAAGGGTC-3′ (SEQ ID NO: 12) | – | significantly larger percentage of sites with a CF of 11.4 kHz
Nt5e shRNA (1366): shRNA against Nt5e, lentivector; coding DNA 5′-GGAATCCATGTGGTGTACGATATTAACCG-3′ (SEQ ID NO: 13) | – | significantly larger percentage of sites with a CF of 11.4 kHz
A1R shRNA (123): shRNA against A1R mRNA, lentivector; coding DNA 5′-CGATGCTACCTTCTGCTTCATCGTATCCC-3′ (SEQ ID NO: 10) | sufficient to induce ACx map plasticity | –
